Experiment: recombinant barcode read abundance after kanamycin selection (control-corrected) (log10(CPM+1)); higher = more efficient recombination; sequences stand for … in AGTGCAGAGAAAATCGGCCAGTTTTCTCTGCCTGCAGTCCGCATGCCGT…ATTTATGCAGCGGACTGCCTTTCTCCCAAAGTGATAAACCGGACAGTATCATGGACCGGTTTTCCCGGTAATCCGTATTTGCAAGGTTGGTTTCACT; site = the 11-nt target
In short: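 Duplicate cultures were plated either on chloramphenicol/ampicillin LB agar, serving as control, or on chloramphenicol/ampicillin/kanamycin with 0.1 mM IPTG. These came from a pooled E. coli library co-electroporated with a donor plasmid, each member pairing a target with an IS621 bridge RNA target-binding loop. Recombination efficiency equals averaged, control-corrected counts per million of recombinant-junction barcodes. It is listed as log10(CPM+1).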

Point of comparison: “GCGCGACCATGGGTTCTAACCTGTTGCTTTG [GCGCGACCTAA_LTGcore_CA_RTGcore_CA] (site GCGCGACCTAA) (LTG core: CA, RTG core: CA)”, “recombinant barcode read abundance (log10)” value 0.125. Against it:
- GAGTCCTCTTGGGTTCTAACCTGTTGCCTAA [GAGTCCTCTAG_LTGcore_CT_RTGcore_TT] (site GAGTCCTCTAG) (LTG core: CT, RTG core: TT) — higher, 1.08
- GAGTCCTCTTGGGTTCTAACCTGTTGCCTCC [GAGTCCTCTAG_LTGcore_CT_RTGcore_GG] (site GAGTCCTCTAG) (LTG core: CT, RTG core: GG) — higher, 1.21
- GAGTCCTGCTGGGTTCTAACCTGTTGCCTAG [GAGTCCTCTAG_LTGcore_GC_RTGcore_CT] (site GAGTCCTCTAG) (LTG core: GC, RTG core: CT) — within 0.2 log units, 0.0703
- GAGTCCTTATGGGTTCTAACCTGTTGCCTTA [GAGTCCTCTAG_LTGcore_TA_RTGcore_TA] (site GAGTCCTCTAG) (LTG core: TA, RTG core: TA) — within 0.2 log units, 0.136
- GAGTCCTTCTGGGTTCTAACCTGTTGCCTAG [GAGTCCTCTAG_LTGcore_TC_RTGcore_CT] (site GAGTCCTCTAG) (LTG core: TC, RTG core: CT) — within 0.2 log units, 0.0148
- GAGTCCTTCTGGGTTCTAACCTGTTGCCTGA [GAGTCCTCTAG_LTGcore_TC_RTGcore_TC] (site GAGTCCTCTAG) (LTG core: TC, RTG core: TC) — within 0.2 log units, 0.0603
- GAGTCCTTGTGGGTTCTAACCTGTTGCCTCA [GAGTCCTCTAG_LTGcore_TG_RTGcore_TG] (site GAGTCCTCTAG) (LTG core: TG, RTG core: TG) — within 0.2 log units, 0.235
- GCGCGACAATGGGTTCTAACCTGTTGCTTTT [GCGCGACCTAA_LTGcore_AA_RTGcore_AA] (site GCGCGACCTAA) (LTG core: AA, RTG core: AA) — within 0.2 log units, 0.188
- GCGCGACCCTGGGTTCTAACCTGTTGCTTGG [GCGCGACCTAA_LTGcore_CC_RTGcore_CC] (site GCGCGACCTAA) (LTG core: CC, RTG core: CC) — within 0.2 log units, 0.0343
- GCGCGACCTTGGGTTCTAACCTGTTGCTTAA [GCGCGACCTAA_LTGcore_CT_RTGcore_TT] (site GCGCGACCTAA) (LTG core: CT, RTG core: TT) — within 0.2 log units, 0.166
- GCGCGACCTTGGGTTCTAACCTGTTGCTTAT [GCGCGACCTAA_LTGcore_CT_RTGcore_AT] (site GCGCGACCTAA) (LTG core: CT, RTG core: AT) — within 0.2 log units, 0.103
- GCGCGACCTTGGGTTCTAACCTGTTGCTTCA [GCGCGACCTAA_LTGcore_CT_RTGcore_TG] (site GCGCGACCTAA) (LTG core: CT, RTG core: TG) — higher, 0.481
- GCGCGACCTTGGGTTCTAACCTGTTGCTTCG [GCGCGACCTAA_LTGcore_CT_RTGcore_CG] (site GCGCGACCTAA) (LTG core: CT, RTG core: CG) — within 0.2 log units, 0.116
- GCGCGACCTTGGGTTCTAACCTGTTGCTTTT [GCGCGACCTAA_LTGcore_CT_RTGcore_AA] (site GCGCGACCTAA) (LTG core: CT, RTG core: AA) — within 0.2 log units, 0.0792
- GCGCGACTCTGGGTTCTAACCTGTTGCTTAG [GCGCGACCTAA_LTGcore_TC_RTGcore_CT] (site GCGCGACCTAA) (LTG core: TC, RTG core: CT) — within 0.2 log units, 0
- GCGCGACTGTGGGTTCTAACCTGTTGCTTCA [GCGCGACCTAA_LTGcore_TG_RTGcore_TG] (site GCGCGACCTAA) (LTG core: TG, RTG core: TG) — within 0.2 log units, 0.0758
- GCGCGACTTTGGGTTCTAACCTGTTGCTTAG [GCGCGACCTAA_LTGcore_TT_RTGcore_CT] (site GCGCGACCTAA) (LTG core: TT, RTG core: CT) — within 0.2 log units, 0.109
- GCGGGACATTGGGTTCTAACCTGTTGCCTAG [GCGGGACCTAG_LTGcore_AT_RTGcore_CT] (site GCGGGACCTAG) (LTG core: AT, RTG core: CT) — within 0.2 log units, 0.17
